Assay results from patent publication US10472356B2, “Bicyclic ketone sulfonamide compounds” (AMGEN INC., priority 2015, dated 2019).

Experiments:
Format in all cases: cell-based
[1] = target: T1, human Nav1.7 (Homo sapiens, UniProt Q15858); assay: Nav 1.7 IWB In Vitro Assay (IonWorks Barracuda); details: HEK293 cells stably transfected with human Nav 1.7; IonWorks Barracuda population patch-clamp; cells clamped to −20 mV for 4 minutes with compound; 26th pulse; read-out: hNav1.7 IWB IC50
T1 construct: expressed in transfected cells; host or cells: HEK293
Method in brief: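 IC50 derived from concentration-response of percent block of the 26th-pulse peak inward current, compound vs none. Protocol: stable human Nav 1.7 HEK293 cells on automated population patch clamp, held at −110 mV, 5 Hz train of 150 ms steps to −20 mV, 4 min compound exposure depolarized at −20 mV, 3 s repolarization, train repeated.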

[2] = target: T1, human Nav1.7; assay: Nav 1.7 IWQ In Vitro Assay (IonWorks Quattro); details: HEK293 cells stably transfected with human Nav 1.7; IonWorks Quattro population patch-clamp; 26th pulse to −20 mV, 5 Hz; cells unclamped 5 to 8 minutes with compound; read-out: hNav1.7 IWQ IC50
Method: Nav 1.7 or Nav 1.5 IWQ In Vitro Assay
HEK293 cells stably transfected with either human Nav 1.7 or human Nav 1.5 were recorded in population patch-clamp mode with the IonWorks® Quattro automated electrophysiology system (Molecular Devices, LLC, Sunnyvale, Calif.). Cells were voltage clamped to −110 mV for three seconds (Nav 1.7) or half a second (Nav 1.5) and sodium currents were elicited by a train of 26 depolarizations of 150 msec duration to −20 mV (Nav 1.7) or 0 mV (Nav 1.5) at a frequency of 5 Hz. Cells were then left unclamped for a period of 5 to 8 minutes while a single concentration of test compound was added. Following this compound incubation period, cells were then reclamped to −110 mV for three seconds (Nav1.7) or half a second (Nav1.5) to recover unbound channels and put through the same 26 pulse voltage protocol as above. Peak inward current during the 26th pulse to −20 mV (Nav 1.7) or 0 mV (Nav 1.5) in the presence of compound was divided by the peak inward current evoked by the 26th pulse to −20 mV (Nav1.7) or 0 mV (Nav1.5) in the absence of compound to determine percent inhibition. Concentration-response curves of percent.

[3] = target: T1, human Nav1.7; assay: Nav 1.7 In Vitro PatchXpress (PX) Assay; details: HEK 293 cells stably transfected with human Nav1.7; PatchXpress whole cell voltage clamp; partially inactivated state (holding potential yielding 20 to 50% inactivation); read-out: hNav1.7 PX IC50
Method in brief: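 Percent inhibition of peak sodium current taken after 3 min exposure to one compound concentration, 3–5 cells each, with IC50 curve fits. Partially inactivated channels (20–50% inactivation at holding potential) in Nav1.7-HEK 293 cells, activated by 20 ms steps to −10 mV every 10 s.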

T1 sequence (Q15858 whole entry): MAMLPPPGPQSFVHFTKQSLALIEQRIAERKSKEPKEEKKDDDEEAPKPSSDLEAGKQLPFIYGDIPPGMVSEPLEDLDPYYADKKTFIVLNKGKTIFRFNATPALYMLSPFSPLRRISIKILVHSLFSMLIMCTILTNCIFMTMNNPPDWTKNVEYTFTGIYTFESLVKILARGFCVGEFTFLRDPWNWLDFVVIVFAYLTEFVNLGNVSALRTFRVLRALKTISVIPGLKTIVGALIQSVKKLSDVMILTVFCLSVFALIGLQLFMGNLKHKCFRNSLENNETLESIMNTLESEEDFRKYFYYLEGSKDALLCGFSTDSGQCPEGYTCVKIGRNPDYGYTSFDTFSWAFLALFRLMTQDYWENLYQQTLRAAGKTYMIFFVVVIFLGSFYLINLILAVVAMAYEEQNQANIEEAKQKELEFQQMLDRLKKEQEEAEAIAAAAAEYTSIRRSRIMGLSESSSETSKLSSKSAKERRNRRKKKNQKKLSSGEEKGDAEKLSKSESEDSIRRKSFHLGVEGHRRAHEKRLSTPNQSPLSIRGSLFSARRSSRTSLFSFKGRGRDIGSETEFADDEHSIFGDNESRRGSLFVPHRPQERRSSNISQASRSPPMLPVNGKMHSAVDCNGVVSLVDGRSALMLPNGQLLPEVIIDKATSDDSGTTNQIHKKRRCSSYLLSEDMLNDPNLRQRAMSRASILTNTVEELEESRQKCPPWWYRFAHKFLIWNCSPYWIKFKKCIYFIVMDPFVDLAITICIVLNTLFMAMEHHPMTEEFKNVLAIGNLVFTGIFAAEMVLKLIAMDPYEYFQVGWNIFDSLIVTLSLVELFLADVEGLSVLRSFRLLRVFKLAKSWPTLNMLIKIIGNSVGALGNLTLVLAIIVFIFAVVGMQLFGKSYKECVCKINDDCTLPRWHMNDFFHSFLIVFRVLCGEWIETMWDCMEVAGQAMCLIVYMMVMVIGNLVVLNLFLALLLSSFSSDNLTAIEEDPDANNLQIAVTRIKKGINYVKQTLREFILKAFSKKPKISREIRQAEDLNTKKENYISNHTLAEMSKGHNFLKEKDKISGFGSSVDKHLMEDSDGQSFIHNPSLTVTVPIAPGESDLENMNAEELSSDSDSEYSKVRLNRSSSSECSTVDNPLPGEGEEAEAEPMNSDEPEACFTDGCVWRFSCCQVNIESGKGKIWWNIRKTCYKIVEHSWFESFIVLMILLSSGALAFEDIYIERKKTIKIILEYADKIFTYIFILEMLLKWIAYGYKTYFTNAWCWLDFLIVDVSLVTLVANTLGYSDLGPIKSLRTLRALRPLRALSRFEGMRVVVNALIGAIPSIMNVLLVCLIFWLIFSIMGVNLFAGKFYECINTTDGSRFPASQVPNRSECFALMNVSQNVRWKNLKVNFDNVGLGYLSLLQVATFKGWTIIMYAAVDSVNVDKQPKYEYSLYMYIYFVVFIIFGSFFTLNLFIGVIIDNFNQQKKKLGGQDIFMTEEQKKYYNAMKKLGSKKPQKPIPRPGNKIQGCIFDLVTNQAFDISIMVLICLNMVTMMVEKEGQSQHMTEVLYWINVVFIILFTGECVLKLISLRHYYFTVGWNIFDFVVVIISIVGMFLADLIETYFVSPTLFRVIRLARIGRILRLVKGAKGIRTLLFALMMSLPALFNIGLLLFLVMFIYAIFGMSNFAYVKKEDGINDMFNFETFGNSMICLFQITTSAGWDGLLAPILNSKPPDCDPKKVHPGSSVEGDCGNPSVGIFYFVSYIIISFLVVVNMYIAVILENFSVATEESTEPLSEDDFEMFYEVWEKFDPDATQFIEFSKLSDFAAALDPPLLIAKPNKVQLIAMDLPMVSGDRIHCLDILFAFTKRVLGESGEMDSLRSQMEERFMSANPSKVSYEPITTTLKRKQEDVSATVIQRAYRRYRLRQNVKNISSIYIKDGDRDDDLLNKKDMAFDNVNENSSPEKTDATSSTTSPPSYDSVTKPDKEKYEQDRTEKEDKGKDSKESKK

| SMILES | IC50 [1] [nM] | IC50 [2] [nM] | IC50 [3] [nM] |
| --- | --- | --- | --- |
| COc1cc(-c2cc(F)cc(Cl)c2)c(Cl)cc1-n1c2c(ccc1=O)CN(S(=O)(=O)Nc1ccon1)CC2 [Example 53, P-1-(2,3′-dichloro-5′-fluoro-5-methoxy-4-biphenylyl)-N-3-isoxazolyl-2-oxo-1,5,7,8-tetrahydro-1,6-naphthyridine-6(2H)-sulfonamide] | 0.7 |  | 5.2 |
| COc1ccc(Cl)cc1-c1cc(OC)c(-n2c3c(ccc2=O)CN(S(=O)(=O)Nc2cccnn2)CC3)cc1F [Example 59, P-1-(5′-chloro-2-fluoro-2′,5-dimethoxy-[1,1′-biphenyl]-4-yl)-2-oxo-N-(pyridazin-3-yl)-1,2,7,8-tetrahydro-1,6-naphthyridine-6(5H)-sulfonamide] | 6.5 |  | 48.1 |
| COc1cc(-c2ccc(Cl)cc2)c(F)cc1-n1c2c(ccc1=O)CN(S(=O)(=O)Nc1cccnn1)CC2 [Example 61, P-1-(4′-chloro-2-fluoro-5-methoxy-[1,1′-biphenyl]-4-yl)-2-oxo-N-(pyridazin-3-yl)-1,2,7,8-tetrahydro-1,6-naphthyridine-6(5H)-sulfonamide] | 24.1 |  | 195 |
| COc1cc(-c2cccc(Cl)c2)c(F)cc1-n1c2c(ccc1=O)CN(S(=O)(=O)Nc1cccnn1)CC2 [Example 62, P-1-(3′-chloro-2-fluoro-5-methoxy-[1,1′-biphenyl]-4-yl)-2-oxo-N-(pyridazin-3-yl)-1,2,7,8-tetrahydro-1,6-naphthyridine-6(5H)-sulfonamide] | 8.6 |  | 75.8 |
| COc1ccc(-c2cc(OC)c(-n3c4c(ccc3=O)CN(S(=O)(=O)Nc3cccnn3)CC4)cc2F)cc1Cl [Example 63, P-1-(3′-chloro-2-fluoro-4′,5-dimethoxy-[1,1′-biphenyl]-4-yl)-2-oxo-N-(pyridazin-3-yl)-1,2,7,8-tetrahydro-1,6-naphthyridine-6(5H)-sulfonamide] | 22.2 |  | 321 |
| COc1cc(-c2ccc(C(F)(F)F)cc2)c(F)cc1-n1c2c(ccc1=O)CN(S(=O)(=O)Nc1cccnn1)CC2 [Example 67, P-1-(2-fluoro-5-methoxy-4′-(trifluoromethyl)-[1,1′-biphenyl]-4-yl)-2-oxo-N-(pyridazin-3-yl)-1,2,7,8-tetrahydro-1,6-naphthyridine-6(5H)-sulfonamide] | 20.5 |  | 75.8 |
| COc1cc(-c2cc(C)cc(Cl)c2)c(F)cc1-n1c2c(ccc1=O)CN(S(=O)(=O)Nc1cccnn1)CC2 [Example 69, P-1-(3′-chloro-2-fluoro-5-methoxy-5′-methyl-[1,1′-biphenyl]-4-yl)-2-oxo-N-(pyridazin-3-yl)-1,2,7,8-tetrahydro-1,6-naphthyridine-6(5H)-sulfonamide] | 16.9 |  | 22.8 |
| COc1cc(Cl)cc(-c2cc(OC)c(-n3c4c(ccc3=O)CN(S(=O)(=O)Nc3cccnn3)CC4)cc2F)c1 [Example 70, P-1-(3′-chloro-2-fluoro-5,5′-dimethoxy-[1,1′-biphenyl]-4-yl)-2-oxo-N-(pyridazin-3-yl)-1,2,7,8-tetrahydro-1,6-naphthyridine-6(5H)-sulfonamide] | 6.2 |  | 20 |
| COc1cc(-c2ccc(F)c(C)c2)c(F)cc1-n1c2c(ccc1=O)CN(S(=O)(=O)Nc1cccnn1)CC2 [Example 73, P-1-(2,4′-difluoro-5-methoxy-3′-methyl-[1,1′-biphenyl]-4-yl)-2-oxo-N-(pyridazin-3-yl)-1,2,7,8-tetrahydro-1,6-naphthyridine-6(5H)-sulfonamide] | 18 |  | 232 |
| COc1ccc(C(F)(F)F)cc1-c1cc(OC)c(-n2c3c(ccc2=O)CN(S(=O)(=O)Nc2cccnn2)CC3)cc1F [Example 74, P-1-(2-fluoro-2′,5-dimethoxy-5′-(trifluoromethyl)-[1,1′-biphenyl]-4-yl)-2-oxo-N-(pyridazin-3-yl)-1,2,7,8-tetrahydro-1,6-naphthyridine-6(5H)-sulfonamide] | 7.7 |  | 29.4 |
| COc1cc(-c2cc(F)cc(F)c2)c(F)cc1-n1c2c(ccc1=O)CN(S(=O)(=O)Nc1ccncn1)CC2 [Example 88, P-2-oxo-N-(pyrimidin-4-yl)-1-(2,3′,5′-trifluoro-5-methoxy-[1,1′-biphenyl]-4-yl)-1,2,7,8-tetrahydro-1,6-naphthyridine-6(5H)-sulfonamide] | 31.2 |  | 475 |

Now from value to compound:

| IC50 [1] [nM] | IC50 [2] [nM] | IC50 [3] [nM] | SMILES |
| --- | --- | --- | --- |
| 33.9 | 9 |  | COc1cc(CCC(F)(F)F)c(Cl)cc1-n1c2c(ccc1=O)CN(S(=O)(=O)Nc1cccnn1)CC2 (single isomer, unassigned) [Example 96-P, P-1-(5-chloro-2-methoxy-4-(3,3,3-trifluoropropyl)phenyl)-2-oxo-N-(pyridazin-3-yl)-1,2,7,8-tetrahydro-1,6-naphthyridine-6(5H)-sulfonamide] |
| 0.5 |  | 6.9 | COc1cc(-c2cccc(C(F)(F)F)c2)c(Cl)cc1-n1c2c(ccc1=O)CN(S(=O)(=O)Nc1ccon1)CC2 [Example 54, P-1-(2-chloro-5-methoxy-3′-(trifluoromethyl)-4-biphenylyl)-N-3-isoxazolyl-2-oxo-1,5,7,8-tetrahydro-1,6-naphthyridine-6(2H)-sulfonamide] |
| 37.5 |  | 420 | COc1cc(-c2cc(Cl)cnc2OC)c(F)cc1-n1c2c(ccc1=O)CN(S(=O)(=O)Nc1cccnn1)CC2 [Example 60, P-1-(4-(5-chloro-2-methoxypyridin-3-yl)-5-fluoro-2-methoxyphenyl)-2-oxo-N-(pyridazin-3-yl)-1,2,7,8-tetrahydro-1,6-naphthyridine-6(5H)-sulfonamide] |
| 1.9 |  | 66.1 | COc1cc(-c2cc(C(F)(F)F)cnc2OC)c(F)cc1-n1c2c(ccc1=O)CN(S(=O)(=O)Nc1cccnn1)CC2 [Example 64, P-1-(5-fluoro-2-methoxy-4-(2-methoxy-5-(trifluoromethyl)pyridin-3-yl)phenyl)-2-oxo-N-(pyridazin-3-yl)-1,2,7,8-tetrahydro-1,6-naphthyridine-6(5H)-sulfonamide] |
| 8.5 |  | 251 | COc1cc(-c2cccc(Cl)c2OC)c(F)cc1-n1c2c(ccc1=O)CN(S(=O)(=O)Nc1cccnn1)CC2 [Example 65, P-1-(3′-chloro-2-fluoro-2′,5-dimethoxy-[1,1′-biphenyl]-4-yl)-2-oxo-N-(pyridazin-3-yl)-1,2,7,8-tetrahydro-1,6-naphthyridine-6(5H)-sulfonamide] |
| 15.1 |  | 265 | COc1cc(-c2cccc(C(F)F)c2)c(F)cc1-n1c2c(ccc1=O)CN(S(=O)(=O)Nc1cccnn1)CC2 [Example 72, P-1-(3′-(difluoromethyl)-2-fluoro-5-methoxy-[1,1′-biphenyl]-4-yl)-2-oxo-N-(pyridazin-3-yl)-1,2,7,8-tetrahydro-1,6-naphthyridine-6(5H)-sulfonamide] |
| 11.6 |  | 41.3 | COc1cc(-c2cc(C)cc(C(F)(F)F)c2)c(F)cc1-n1c2c(ccc1=O)CN(S(=O)(=O)Nc1cccnn1)CC2 [Example 75, P-1-(2-fluoro-5-methoxy-3′-methyl-5′-(trifluoromethyl)-[1,1′-biphenyl]-4-yl)-2-oxo-N-(pyridazin-3-yl)-1,2,7,8-tetrahydro-1,6-naphthyridine-6(5H)-sulfonamide] |
| 4.2 |  | 38.8 | COc1cc(OC(F)(F)F)cc(-c2cc(OC)c(-n3c4c(ccc3=O)CN(S(=O)(=O)Nc3cccnn3)CC4)cc2F)c1 [Example 76, P-1-(2-fluoro-3′,5-dimethoxy-5′-(trifluoromethoxy)-[1,1′-biphenyl]-4-yl)-2-oxo-N-(pyridazin-3-yl)-1,2,7,8-tetrahydro-1,6-naphthyridine-6(5H)-sulfonamide] |
| 5.3 |  | 44.5 | COc1cc(-c2cc(C)cc(OC(F)(F)F)c2)c(F)cc1-n1c2c(ccc1=O)CN(S(=O)(=O)Nc1cccnn1)CC2 [Example 78, P-1-(2-fluoro-5-methoxy-3′-methyl-5′-(trifluoromethoxy)-[1,1′-biphenyl]-4-yl)-2-oxo-N-(pyridazin-3-yl)-1,2,7,8-tetrahydro-1,6-naphthyridine-6(5H)-sulfonamide] |
| 2.6 | 3.9 |  | COc1cc(-c2cc(F)c(F)c(OC)c2)c(F)cc1-n1c2c(ccc1=O)CN(S(=O)(=O)Nc1cccnn1)CC2 [Example 79, P-2-oxo-N-(pyridazin-3-yl)-1-(2,3′,4′-trifluoro-5,5′-dimethoxy-[1,1′-biphenyl]-4-yl)-1,2,7,8-tetrahydro-1,6-naphthyridine-6(5H)-sulfonamide] |
